Source: patent publication USRE48267E1, “Variants of C-type natriuretic peptide” (priority 2009, dated 2020)
*1 amine or outer side, *2 acyl side, *3 side chain or, on linkers, in order; H or OH if unused. Where a SMILES comes first, the peptide text is derived from it. Bridges are numbered along the chain shown (N, C = ends). Where no end group is shown, it is not given here. [ ]: non-standard residue; d: D form. X1 = O=C(C(CN[*:1])c1ccccc1)[*:2]

What was measured:
Recombinant human NEP = Recombinant human NEP (Homo sapiens, UniProt P08473); test: in vitro NEP cleavage assay (disappearance of non-cleaved CNP variant)
Method in brief: (§1)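 Recombinant human NEP (1 ug/mL final) incubated with 100 uM CNP variant in 0.1 M Tris, pH 7, at 37° C for various times, then quenched with EDTA (10 mM final) and heat. Samples reduced and analysed by HPLC and mass spectrometry. Half-life derived from loss of intact variant over time.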

[1] = target: neutral endopeptidase (NEP) (Homo sapiens, UniProt P08473); test: as above; details: human, pH 7
Method in brief: as §1

[2] = IgG assay (immunogenicity) in mice; details: mouse, in vivo
Procedure: An IgG assay was performed to assess whether an IgG immune response was triggered by 5 week exposure of achondroplastic FGFR3^ach mice to CNP22, CNP37 or PEO24-GANRR-CNP22(K4R) (“CNP27-PEO24”) (SEQ ID NO: 36). IgG is the most predominant immunoglobulin in mouse and human serum and is produced as part of the secondary immune response to an antigen. The IgG response to administration of the CNP peptides was determined as follows. 96-well plates were coated with 100 ng/mL CNP22, CNP37 or PEO24-GANRR-CNP22(K4R) (SEQ ID NO: 36) in BupH PBS buffer (Pierce/Thermo, Cat. No. 28372, Rockford, Ill.). After overnight incubation, plates were blocked with Casein-PBS blocking buffer (Pierce/Thermo, Cat. No. 37528) for two hours at room temperature with shaking at 300 rpm. After washing with wash buffer (1×PBS with 0.05% Tween), diluted serum samples from a terminal bleed (diluted 1:25) were added to the plate. Positive and negative controls were also loaded onto the plate. Positive control was 1:25 diluted serum (pooled from 6 individual FVB mice) with anti-CNP22 antibody added (Bachem rabbit anti-CNP22 IgG, Cat. No. T-4222) at 1:1000 dilution. Negative control was the diluted pooled serum. After two hours of incubation, the plates were washed and secondary antibody diluted in blocking buffer was added to the wells. For the mouse serum samples, anti-mouse IgG Fcγ (peroxidase-conjugated affinipure goat anti-mouse IgG, Fcγ fragment, Cat. No. 115-035-071, Jackson Immunoresearch, West Grove, Pa.) was added at a 1:10,000 dilution. For the positive and negative controls, anti-rabbit IgG-HRP (Santa Cruz Biotechnology, Cat. No. SC-2004, Santa Cruz, Calif.) was added to blocking buffer. After two hours of incubation at room temperature with shaking at 300 rpm, plates were washed with wash buffer. 100 uL of TMB (One-step TMB, Pierce/Thermo, Cat. No. 34022) was added to all wells. Plates were incubated at room temperature for 15 minutes with shaking at 300 rpm. Colorimetric reactions were stopped by the addition of 100 uL of 2 N H2SO4. Plates were read at 450 nm (Spectramax, Molecular Devices, Sunnyvale, Calif.) and data was analyzed using SoftMax Pro software (Molecular Devices).
The immunogenic response of wild-type mice administered G-CNP37, PEO12-GANRR-CNP22(K4R) (SEQ ID NO: 36) or Pro-Gly-CNP37, as measured by an increase in serum IgG level, was also assessed by examining terminal bleed serum samples as described above.

[3] = pharmacokinetics in rats (plasma CNP immunoreactivity by RIA); format: in vivo, rat; details: male, rat, plasma, iv, i.v. 20 nmol/kg
Procedure: Recombinant wild-type CNP22, CNP37 and PEO24-GANRR-CNP22 […]) (SEQ ID NO: 36) were evaluated. […] Standard and QC samples were prepared. […] Plasma CNP immunoreactivity was employed for pharmacokinetics (PK) analysis. PK analysis was performed using WINNONLIN® Professional (Pharsight Corporation).

[4] = target: T1, NPR-B (natriuretic peptide receptor B), murine, expressed endogenously on NIH3T3 cells (murine, UniProt Q6VVW5 17-1047); test: cell-based or functional assay
T1 sequence (looked up): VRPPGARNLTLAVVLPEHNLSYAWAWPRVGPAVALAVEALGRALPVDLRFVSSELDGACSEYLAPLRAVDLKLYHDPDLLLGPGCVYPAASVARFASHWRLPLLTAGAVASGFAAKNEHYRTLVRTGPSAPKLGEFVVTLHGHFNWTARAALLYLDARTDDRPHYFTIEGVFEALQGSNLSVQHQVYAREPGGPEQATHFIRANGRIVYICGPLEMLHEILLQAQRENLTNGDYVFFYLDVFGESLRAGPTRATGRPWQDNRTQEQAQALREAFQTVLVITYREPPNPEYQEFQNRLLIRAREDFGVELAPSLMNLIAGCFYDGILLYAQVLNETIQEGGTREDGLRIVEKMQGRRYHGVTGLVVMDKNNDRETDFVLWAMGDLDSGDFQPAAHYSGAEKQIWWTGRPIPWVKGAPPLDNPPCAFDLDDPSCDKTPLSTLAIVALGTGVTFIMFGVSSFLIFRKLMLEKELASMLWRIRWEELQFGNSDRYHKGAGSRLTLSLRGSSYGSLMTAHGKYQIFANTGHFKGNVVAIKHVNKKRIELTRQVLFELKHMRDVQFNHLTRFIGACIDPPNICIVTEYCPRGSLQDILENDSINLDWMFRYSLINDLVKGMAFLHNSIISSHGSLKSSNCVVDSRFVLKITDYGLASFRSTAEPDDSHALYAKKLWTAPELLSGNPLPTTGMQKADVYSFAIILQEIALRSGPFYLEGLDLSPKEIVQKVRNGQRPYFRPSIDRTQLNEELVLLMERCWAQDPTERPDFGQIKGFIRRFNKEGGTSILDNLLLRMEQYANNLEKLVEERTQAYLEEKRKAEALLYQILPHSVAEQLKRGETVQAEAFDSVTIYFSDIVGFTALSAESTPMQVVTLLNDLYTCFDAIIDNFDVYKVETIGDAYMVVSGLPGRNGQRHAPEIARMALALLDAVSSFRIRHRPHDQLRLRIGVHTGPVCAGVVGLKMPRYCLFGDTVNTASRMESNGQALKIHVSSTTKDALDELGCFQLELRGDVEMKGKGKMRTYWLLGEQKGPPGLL

Recombinant human NEP, sequence (P08473 whole entry): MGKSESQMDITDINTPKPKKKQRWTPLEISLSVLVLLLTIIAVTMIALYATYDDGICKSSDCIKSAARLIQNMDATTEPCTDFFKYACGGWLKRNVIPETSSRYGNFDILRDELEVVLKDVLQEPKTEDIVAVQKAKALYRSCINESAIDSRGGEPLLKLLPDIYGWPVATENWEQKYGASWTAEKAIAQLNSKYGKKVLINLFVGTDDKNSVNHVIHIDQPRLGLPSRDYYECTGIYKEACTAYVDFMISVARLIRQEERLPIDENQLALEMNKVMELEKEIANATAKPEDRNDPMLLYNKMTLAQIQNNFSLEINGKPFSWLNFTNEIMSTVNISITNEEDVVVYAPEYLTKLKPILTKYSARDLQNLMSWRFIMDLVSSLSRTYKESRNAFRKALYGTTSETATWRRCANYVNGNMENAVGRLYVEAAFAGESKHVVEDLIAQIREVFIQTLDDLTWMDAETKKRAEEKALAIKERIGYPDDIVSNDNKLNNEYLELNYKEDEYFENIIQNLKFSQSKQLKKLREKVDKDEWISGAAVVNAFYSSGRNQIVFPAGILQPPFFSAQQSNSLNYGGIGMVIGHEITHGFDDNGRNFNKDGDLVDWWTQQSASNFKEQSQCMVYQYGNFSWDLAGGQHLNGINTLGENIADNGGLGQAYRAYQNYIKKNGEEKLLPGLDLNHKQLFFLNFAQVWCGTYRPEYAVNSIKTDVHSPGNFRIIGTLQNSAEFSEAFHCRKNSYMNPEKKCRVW
neutral endopeptidase (NEP), sequence (P08473 whole entry): as above

Q: Which results are given for CC[C@H](C)[C@@H]1NC(=O)[C@H](CCCNC(=N)N)NC(=O)[C@H](CC(=O)O)NC(=O)[C@H](CC(C)C)NC(=O)[C@H](CCCCN)NC(=O)[C@H](CC(C)C)NC(=O)CNC(=O)C(c2ccccc2)CNC(=O)[C@@H](NC(=O)CNC(=O)[C@H](CCCCN)NC(=O)[C@H](CO)NC(=O)[C@H](CC(C)C)NC(=O)CN)CSSC[C@@H](C(=O)O)NC(=O)CNC(=O)[C@H](CC(C)C)NC(=O)CNC(=O)[C@H](CO)NC(=O)[C@H](CCSC)NC(=O)[C@H](CO)NC(=O)CNC1=O (some centres unmarked) [Analog H] (H-GLSKGC[X1]GLKLDRIGSMSGLGC-OH; disulfide 6-22)?
A: resistance to cleavage at the Cys6-Phe7 bond relative to wtCNP22 (Recombinant human NEP): resistance or improved resistance; half-life at 100 uM ([1]; recombinant human NEP (neutral endopeptidase)): 1.33 h

Q: For CC[C@H](C)[C@@H]1NC(=O)[C@H](CCCNC(=N)N)NC(=O)[C@H](CC(=O)O)NC(=O)[C@H](CC(C)C)NC(=O)[C@H](CCCCN)NC(=O)[C@H](CC(C)C)NC(=O)CNC(=O)[C@H](Cc2ccccc2)NC(=O)[C@@H](NC(=O)CNC(=O)[C@H](CCCCN)NC(=O)[C@H](CO)NC(=O)[C@H](CC(C)C)NC(=O)CNC(=O)CCCC(=O)NCCOCCOCCOCCOCCC(=O)NC(COCCC(=O)NCCOCCOCCOCCOCCOCCOCCOCCOCCOCCOCCOC)(COCCC(=O)NCCOCCOCCOCCOCCOCCOCCOCCOCCOCCOCCOC)COCCC(=O)NCCOCCOCCOCCOCCOCCOCCOCCOCCOCCOCCOC)CSSC[C@@H](C(=O)O)NC(=O)CNC(=O)[C@H](CC(C)C)NC(=O)CNC(=O)[C@H](CO)NC(=O)[C@H](CCSC)NC(=O)[C@H](CO)NC(=O)CNC1=O [PEO4-(PEO12)3(branched)-CNP22], which half-life at 100 uM [1] is on record?
A: > 2.67 h

Q: For CC[C@H](C)[C@@H]1NC(=O)[C@H](CCCNC(=N)N)NC(=O)[C@H](CC(=O)O)NC(=O)[C@H](CC(C)C)NC(=O)[C@H](CCCCN)NC(=O)[C@H](CC(C)C)NC(=O)CNC(=O)[C@H](Cc2ccccc2)NC(=O)[C@@H](NC(=O)CNC(=O)[C@H](CCCCN)NC(=O)[C@H](CO)NC(=O)[C@H](CC(C)C)NC(=O)CNC(=O)CCOCCOCCOCCOCCOCCOCCOCCOCCOCCOCCOCCOC)CSSC[C@@H](C(=O)O)NC(=O)CNC(=O)[C@H](CC(C)C)NC(=O)CNC(=O)[C@H](CO)NC(=O)[C@H](CCSC)NC(=O)[C@H](CO)NC(=O)CNC1=O [PEO12-CNP22], which half-life at 100 uM [1] is on record?
A: 2.67 h

Q: Which half-life at 100 uM ([1]; recombinant human neutral endopeptidase (NEP)) does the source give for CC[C@H](C)[C@@H]1NC(=O)[C@H](CCCNC(=N)N)NC(=O)[C@H](CC(=O)O)NC(=O)[C@H](CC(C)C)NC(=O)[C@H](CCCCN)NC(=O)[C@H](CC(C)C)NC(=O)CNC(=O)[C@H](Cc2ccccc2)NC(=O)[C@@H](NC(=O)CNC(=O)CNC(=O)[C@H](CO)NC(=O)[C@H](CC(C)C)NC(=O)CN)CSSC[C@@H](C(=O)O)NC(=O)CNC(=O)[C@H](CC(C)C)NC(=O)CNC(=O)[C@H](CO)NC(=O)[C@H](CCSC)NC(=O)[C@H](CO)NC(=O)CNC1=O [Analog P, CNP22, K4G] (H-GLSGGCFGLKLDRIGSMSGLGC-OH; disulfide 6-22) here?
A: 1.13 h

Q: With CC[C@H](C)[C@@H]1NC(=O)[C@H](CCCNC(=N)N)NC(=O)[C@H](CC(=O)O)NC(=O)[C@H](CC(C)C)NC(=O)[C@H](CCCCN)NC(=O)[C@H](CC(C)C)NC(=O)CNC(=O)[C@H](Cc2ccccc2)NC[C@@H](NC(=O)CNC(=O)[C@H](CCCCN)NC(=O)[C@H](CO)NC(=O)[C@H](CC(C)C)NC(=O)CN)CSSC[C@@H](C(=O)O)NC(=O)CNC(=O)[C@H](CC(C)C)NC(=O)CNC(=O)[C@H](CO)NC(=O)[C@H](CCSC)NC(=O)[C@H](CO)NC(=O)CNC1=O [Analog A] as the molecule, how does the “resistance to cleavage at the Cys6-Phe7 bond relative to wtCNP22” value (Recombinant human NEP) read?
A: resistance or improved resistance

Q: What about the half-life at 100 uM [1] of the same molecule?
A: 0.917 h

Q: Which results are given for CC[C@H](C)[C@@H]1NC(=O)[C@H](CCCNC(=N)N)NC(=O)[C@H](CC(=O)O)NC(=O)[C@H](CC(C)C)NC(=O)[C@H](CCCCN)NC(=O)[C@H](CC(C)C)NC(=O)CNC(=O)[C@H](Cc2ccccc2)NC(=O)[C@@H](NC(=O)CNC(=O)[C@H](CCCCN)NC(=O)[C@H](CO)NC(=O)[C@H](CC(C)C)NC(=O)CNC(=O)[C@H](CCCCN)NC(=O)[C@H](CCCCN)NC(=O)[C@H](CC(N)=O)NC(=O)[C@H](C)NC(=O)CNC(=O)[C@H](CCCCN)NC(=O)[C@H](Cc2ccc(O)cc2)NC(=O)[C@H](CCCCN)NC(=O)[C@H](CCCNC(=N)N)NC(=O)[C@H](C)NC(=O)[C@H](CC(N)=O)NC(=O)[C@@H]2CCCN2C(=O)[C@H](Cc2c[nH]cn2)NC(=O)[C@H](CCC(=O)O)NC(=O)[C@H](CCC(N)=O)NC(=O)CN)CSSC[C@@H](C(=O)O)NC(=O)CNC(=O)[C@H](CC(C)C)NC(=O)CNC(=O)[C@H](CO)NC(=O)[C@H](CCSC)NC(=O)[C@H](CO)NC(=O)CNC1=O [Analog DB]?
A: resistance to NEP cleavage (in words) (Recombinant human NEP): completely resistant to NEP cleavage; half-life at 100 uM [1]: > 2.67 h; IgG immune response [2]: one out of six

Q: Which AUC ([3]; read-out: area under the curve, AUC (converted)) does the source give for CC[C@H](C)[C@@H]1NC(=O)[C@H](CCCNC(=N)N)NC(=O)[C@H](CC(=O)O)NC(=O)[C@H](CC(C)C)NC(=O)[C@H](CCCCN)NC(=O)[C@H](CC(C)C)NC(=O)CNC(=O)[C@H](Cc2ccccc2)NC(=O)[C@@H](NC(=O)CNC(=O)[C@H](CCCCN)NC(=O)[C@H](CO)NC(=O)[C@H](CC(C)C)NC(=O)CNC(=O)[C@H](CCCCN)NC(=O)[C@H](CCCCN)NC(=O)[C@H](CC(N)=O)NC(=O)[C@H](C)NC(=O)CNC(=O)[C@H](CCCCN)NC(=O)[C@H](Cc2ccc(O)cc2)NC(=O)[C@H](CCCCN)NC(=O)[C@H](CCCNC(=N)N)NC(=O)[C@H](C)NC(=O)[C@H](CC(N)=O)NC(=O)[C@@H]2CCCN2C(=O)[C@H](Cc2c[nH]cn2)NC(=O)[C@H](CCC(=O)O)NC(=O)[C@@H](N)CCC(N)=O)CSSC[C@@H](C(=O)O)NC(=O)CNC(=O)[C@H](CC(C)C)NC(=O)CNC(=O)[C@H](CO)NC(=O)[C@H](CCSC)NC(=O)[C@H](CO)NC(=O)CNC1=O [Analog BL] here?
A: 0.026 µM·h

Q: And the half-life ([3]; read-out: half-life, T1/2)?
A: 0.825 h

B1: CNP22, C6-CH2-NH (reduced carbonyl) (peptide)
peptide: GLSKGCFGLKLDRIGSMSGLGC
modifications: ends and bridges not checked; also: backbone C=O of Cys6 reduced to CH2 (C6-CH2-NH isostere)
Q: Which results are given for B1?
A: cGMP response rel. to 1 uM CNP22; 10 nM peptide, NIH3T3 cells [4]: 6 rel. to 1 uM CNP22 (100); cGMP response rel. to 1 uM CNP22; 1 uM peptide, NIH3T3 cells [4]: 66 rel. to 1 uM CNP22 (100)
